Assay results reported in patent publication US20040266811A1, “Methods for inducing regeneration, remyelination, and hypermyelination of nervous tissue” (priority 2002, published 2004).
pKd: −log10 of the molar value. “Also recorded” adds a separate entry of the source.

Key:
recombinant FKBP52 = target: T1, recombinant FKBP52 (Homo sapiens, UniProt Q02790); test: Tryptophan fluorescence (QTFS) binding to recombinant FKBP52
T1 construct: other: QTFS, 18° C., unit not given; dissociation constant (kd) for FKBP52 by QTFS; other: QTFS; fused on or other part: probably GST at the N-terminus (pGEX-6p), as in b91 and the GST-alone control of b31
T1 sequence (Q02790 1-459): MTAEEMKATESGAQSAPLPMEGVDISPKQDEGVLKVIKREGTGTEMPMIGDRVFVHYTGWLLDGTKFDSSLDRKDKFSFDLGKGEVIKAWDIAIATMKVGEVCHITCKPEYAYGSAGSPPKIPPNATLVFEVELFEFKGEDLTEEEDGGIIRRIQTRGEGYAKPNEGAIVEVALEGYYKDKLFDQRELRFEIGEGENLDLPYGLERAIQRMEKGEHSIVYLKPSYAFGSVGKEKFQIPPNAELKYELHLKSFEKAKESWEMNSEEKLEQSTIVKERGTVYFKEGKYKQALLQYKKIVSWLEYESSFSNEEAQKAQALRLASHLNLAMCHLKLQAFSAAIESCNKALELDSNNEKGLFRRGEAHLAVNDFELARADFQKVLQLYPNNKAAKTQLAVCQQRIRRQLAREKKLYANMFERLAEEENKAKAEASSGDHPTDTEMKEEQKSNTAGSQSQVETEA

DRG explants = test: DRG explant neurite outgrowth with anti-NGF neutralizing antibodies or MEK1 inhibitor; assay type: cell-based, C57B1/6 mice; conditions: DRGs cultured in 1 μM GM-284 plus inhibitor
Experimental: (A) DRGs were prepared and cultured as above, except that either the MEK1 inhibitor, PD 098059, or NGF-neutralizing antibodies were included in cultures treated with either NGF or GM-284. Maximal response was determined to be the extent of neurite outgrowth when DRGs were cultured in NGF alone (spotted bars) or in 1 μM GM-284 (striped bars). As indicated, DRGs were treated with either NGF or GM-284, in the presence of either 0.25 mg/ml anti-NGF neutralizing antibodies or PD 098059. […] DRGs were treated with 100 ng/ml NGF or 1 μM GM-284, for 30 min or 4 h, as indicated, and the detergent lysates were prepared and immunoblotted with anti-phospho-Erk monoclonal antibody. The p42 and p44 bands are indicated by arrowheads.
Explanted DRG ganglia were dissected from P1 to P3 C57B1/6 mice, as previously described (Weinstein et al., Targeted expression of an oncogenic adaptor protein v-Crk potentiates axonal growth in dorsal root ganglia and motor neurons in vivo. Brain Res. Dev. Brain Res., 116:29-39, 1999). Briefly, DRGs were dissected and placed in ice-cold PBS containing 2% glucose, then transferred onto polyornithine/laminin-coated tissue culture plates (Biocoat, Becton Dickinson Laboratories) in DMEM-plating medium overnight. The plating medium consisted of Dulbecco's minimal essential plating medium (DMEM) supplemented with 10% fetal calf serum (FCS; Hyclone), 0.6% glucose, 2 mM glutamine, 100 U/ml penicillin, 100 μg/ml streptomycin, and 20 mM HEPES. […] For experiments employing anti-NGF neutralizing antibodies, cultures were incubated with […] anti-NGF antiserum, and replaced every two days. Cultures were kept at 37° C., in 5% CO2, for up to 1 week, at which time the extent of well-defined neurite outgrowth was assessed.
Signaling by the neurotrophins, while mediated by different cell-surface receptors, converges on the extensively studied and well-characterized MAP kinase pathway. […] Therefore, the inventors explored the possibility that GM-284 might signal through NGF directly, or through the MAP kinase cascade. […]

[1] = test system: TrkA-overexpressing PC12 cells; test: Schwann cell conditioned media on TrkA-overexpressing PC12 cells; assay type: cell-based; conditions: Schwann cells 1 μM GM-284 48 h; CM on PC12 72 h
Experimental: Wild-type and TrkA-overexpressing PC12 cells (Hempstead et al., Overexpression of the trk tyrosine kinase rapidly accelerates nerve growth factor-induced differentiation. Neuron, 9:883-96, 1992) were maintained in DMEM supplemented with 10% calf serum and 5% horse serum, the latter of which was also supplemented with 200 μg/ml G418 to maintain TrkA selection. Cultures were treated with 100 ng/ml NGF or the immunophilin ligands, or treated with Schwann-cell-conditioned medium supplemented with 5% horse serum, as indicated below. To generate GFP-expressing PC12 cells, a bicistronic pCX-bsr retroviral vector (Escalante et al., Phosphorylation of c-Crk II on the negative regulatory Tyr222 mediates nerve growth factor-induced cell spreading and morphogenesis. J. Biol. Chem., 275:24787-797, 2000), which drives expression of green fluorescent protein (GFP), was used to infect dividing PC12 cells.
To more directly examine the involvement of Schwann cells in mediating the neuritogenic capacities of GM-284, PC12 cells were infected with GFP-expressing retrovirus, and co-cultured on monolayers of Schwann cells, in the presence of either NGF, GM-284, or vehicle, for 48 h (FIG. 4B, panels a-c). […]

SMILES: CCC(C)(C)C(=O)C(=O)N1CCC[C@H]1c1nnc([C@@H]2CCCN2C(=O)C(=O)C(C)(C)CC)o1 [GM-284]
- disassociation constant (kd), binding affinity for recombinant FKBP52 (recombinant FKBP52; 18° C., unit not given): 139±16.2
- pKd (recombinant FKBP52; read-out: dissociation constant (kd) for FKBP52 by QTFS): 6.86
- effect of anti-NGF / MEK1 inhibition on GM-284-mediated neurite outgrowth (DRG explants): NGF- and MEK1-independent
- neurite outgrowth induced by conditioned media from treated Schwann cells [1]: promoted significant neurite outgrowth; also recorded: Neurite promotion was observed only in the GM-284-treated Schwann cells' conditioned media
